# Test results published in US6559101B2, “N- (5, 7-dimethoxy [1, 2, 4] triazolo [1, 5-a] pyrimidin-2-yl) arylsulfonamide compounds and their use as herbicides” (Dow AgroSciences LLC, priority 2000, dated 2003).
# Tests used:
# Format in all cases: in vivo
# [1] = system: morningglory (Ipomoea hederacea); test: Postemergence herbicidal activity; conditions: scored after 2 weeks, 0 no injury, 100 complete kill
# Method: (§1) Seeds of the desired test plant species were planted in Grace-Sierra MetroMix® 306 planting mixture, which typically has a pH of 6.0 to 6.8 and an organic matter content of about 30 percent, in plastic pots with a surface area of 64 square centimeters. When required to ensure good germination and healthy plants, a fungicide treatment and/or other chemical or physical treatment was applied. The plants were grown for 7-21 days in a greenhouse with an approximately 15 hr photoperiod which was maintained at about 23-29° C. during the day and 22-28° C. during the night. Nutrients and water were added on a regular basis and supplemental lighting was provided with overhead metal halide 1000 Watt lamps as necessary. The plants were employed for testing when they reached the first or second true leaf stage. A weighed amount of each test compound, determined by the highest rate to be tested, was placed in a 20 mL glass vial and was dissolved in 4 mL of a 97:3 v/v (volume/volume) mixture of acetone and dimethyl sulfoxide to obtain concentrated stock solutions. […] The concentrated stock solutions obtained were diluted with an aqueous mixture containing acetone, water, iso-propyl alcohol, dimethyl sulfoxide, Atplus 411F crop oil concentrate, and Triton X-155 surfactant (methylenebisdiamyl phenoxy polyethoxy ethanol) in a 48.5:39:10:1.5:1.0:0.02 v/v ratio to obtain spray solutions of known concentration. The solutions containing the highest concentration to be tested were prepared by diluting 2 mL aliquots of the stock solution with 13 mL of the mixture and lower concentrations were prepared by dilution of appropriate smaller portions of the stock solution. Approximately 1.5 mL aliquots of each solution of known concentration were sprayed evenly onto each of the test plant pots using a Devilbiss atomizer driven by compressed air pressure of 2 to 4 psi (140 to 280 kiloPascals) to obtain thorough coverage of each plant. Control plants were sprayed in the same manner with the aqueous mixture. In this test an application rate of 1 ppm results in the application of approximately 1 g/ha. The treated plants and control plants were placed in a greenhouse as described above and watered by sub-irrigation to prevent wash-off of the test compounds. After 2 weeks the condition of the test plants as compared with that of the untreated plants was determined visually and scored on a scale of 0 to 100 percent where 0 corresponds to no injury and 100 corresponds to complete kill.
# [2] = system: pigweed (Amaranthus retroflexus); test: Postemergence herbicidal activity; conditions: scored after 2 weeks, 0 no injury, 100 complete kill
# Method: as §1
# [3] = system: wild oats (Avena fatua); test: Postemergence herbicidal activity; conditions: scored after 2 weeks, 0 no injury, 100 complete kill
# Method: as §1
# [4] = system: wild buckwheat (Polygonum convolvulus); test: Postemergence herbicidal activity; conditions: scored after 2 weeks, 0 no injury, 100 complete kill
# Method: as §1
# [5] = system: blackgrass (Alopecurus myosuroides); test: Postemergence herbicidal activity; conditions: scored after 2 weeks, 0 no injury, 100 complete kill
# Method: as §1
# [6] = system: chickweed (Stellaria media); test: Postemergence herbicidal activity; conditions: scored after 2 weeks, 0 no injury, 100 complete kill
# Method: as §1
# [7] = system: viola (Viola tricolor); test: Postemergence herbicidal activity; conditions: scored after 2 weeks, 0 no injury, 100 complete kill
# Method: as §1
# [8] = system: cocklebur (Xanthium strumarium); test: Postemergence herbicidal activity; conditions: scored after 2 weeks, 0 no injury, 100 complete kill
# Method: as §1
# [9] = system: lambsquarters (Chenopodium album); test: Postemergence herbicidal activity; conditions: scored after 2 weeks, 0 no injury, 100 complete kill
# Method: as §1
# [10] = system: velvetleaf (Abutilion theophrasti); test: Postemergence herbicidal activity; conditions: scored after 2 weeks, 0 no injury, 100 complete kill
# Method: as §1
# [11] = system: Rox orange sorghum (Sorghum bicolor); test: Postemergence herbicidal activity; conditions: scored after 2 weeks, 0 no injury, 100 complete kill
# Method: as §1
# [12] = system: giant foxtail (Setaria faberi); test: Postemergence herbicidal activity; conditions: scored after 2 weeks, 0 no injury, 100 complete kill
# Method: as §1
# [13] = system: wild poinsettia (Euphorbia heterophylla); test: Preemergence herbicidal activity; conditions: scored after 3 weeks, 0 no injury, 100 complete kill or no germination
# Method: (§2) The soil matrix was contained in plastic pots with a surface area of 161 square centimeters. When required to ensure good germination and healthy plants, a fungicide treatment and/or other chemical or physical treatment was applied. A weighed amount, determined by the highest rate to be tested, of each test compound was placed in a 20 mL glass vial and was dissolved in 8 mL of a 97:3 v/v (volume/volume) mixture of acetone and dimethyl sulfoxide to obtain concentrated stock solutions. […] The stock solutions obtained were diluted with a 99.9:0.1 mixture of water and Tween® 155 surfactant (ethoxylated sorbitan fatty acid ester) to obtain application solutions of known concentration. The solutions containing the highest concentration to be tested were prepared by diluting 4 mL aliquots of the stock solution with 8.5 mL of the mixture and lower concentrations were prepared by dilution of appropriate smaller portions of the stock solution. A 2.5 mL aliquot of each solution of known concentration was sprayed evenly onto the soil of each seeded pot using a Cornwall 5.0 mL glass syringe fitted with a TeeJet TN-3 hollow cone nozzle to obtain thorough coverage of the soil in each pot. Control pots were sprayed in the same manner with the aqueous mixture. A highest application rate of 4.48 kg/ha is achieved when 50 mg of test compound is employed. The treated pots and control pots were placed in a greenhouse with an approximately 15 hr photoperiod which was maintained at about 23-29° C. during the day and 22-28° C. during the night. Nutrients and water were added on a regular basis and supplemental lighting was provided with overhead metal halide 1000 Watt lamps as necessary. The water was added by top-irrigation. After 3 weeks the condition of the test plants that germinated and grew as compared with that of the untreated plants that germinated and grew was determined visually and scored on a scale of 0 to 100 percent where 0 corresponds to no injury and 100 corresponds to complete kill or no germination.
# [14] = system: morningglory (Ipomoea hederacea); test: Preemergence herbicidal activity; conditions: scored after 3 weeks, 0 no injury, 100 complete kill or no germination
# Method: as §2
# [15] = system: pigweed (Amaranthus retroflexus); test: Preemergence herbicidal activity; conditions: scored after 3 weeks, 0 no injury, 100 complete kill or no germination
# Method: as §2
# [16] = system: wild oats (Avena fatua); test: Preemergence herbicidal activity; conditions: scored after 3 weeks, 0 no injury, 100 complete kill or no germination
# Method: as §2
# [17] = system: barnyardgrass (Echinochloa crus-galli); test: Preemergence herbicidal activity; conditions: scored after 3 weeks, 0 no injury, 100 complete kill or no germination
# Method: as §2
# [18] = system: blackgrass (Alopecurus myosuroides); test: Preemergence herbicidal activity; conditions: scored after 3 weeks, 0 no injury, 100 complete kill or no germination
# Method: as §2
# [19] = system: cocklebur (Xanthium strumarium); test: Preemergence herbicidal activity; conditions: scored after 3 weeks, 0 no injury, 100 complete kill or no germination
# Method: as §2
# [20] = system: crabgrass (Digitaria sanguinalis); test: Preemergence herbicidal activity; conditions: scored after 3 weeks, 0 no injury, 100 complete kill or no germination
# Method: as §2
# [21] = system: velvetleaf (Abutilion theophrasti); test: Preemergence herbicidal activity; conditions: scored after 3 weeks, 0 no injury, 100 complete kill or no germination
# Method: as §2
# [22] = system: Rox orange sorghum (Sorghum bicolor); test: Preemergence herbicidal activity; conditions: scored after 3 weeks, 0 no injury, 100 complete kill or no germination
# Method: as §2
# [23] = system: giant foxtail (Setaria faberi); test: Preemergence herbicidal activity; conditions: scored after 3 weeks, 0 no injury, 100 complete kill or no germination
# Method: as §2
compound,measurement,setting,value
COc1cc(OC)n2nc(NS(=O)(=O)c3c(OC)cccc3C(F)(F)F)nc2n1 [Compound 4],Postemergence herbicidal activity IPOHE,[1]; 3.9 ppm,90%
same,Postemergence herbicidal activity AMARE,[2]; 3.9 ppm,100%
same,Postemergence herbicidal activity AVEFA,[3]; 3.9 ppm,98%
same,Postemergence herbicidal activity POLCO,[4]; 3.9 ppm,95%
same,Postemergence herbicidal activity ALOMY,[5]; 3.9 ppm,95%
same,Postemergence herbicidal activity STEME,[6]; 3.9 ppm,99%
same,Postemergence herbicidal activity VIOTR,[7]; 3.9 ppm,90%
same,Postemergence herbicidal activity XANST,[8]; 3.9 ppm,70%
same,Postemergence herbicidal activity CHEAL,[9]; 3.9 ppm,95%
same,Postemergence herbicidal activity ABUTH,[10]; 3.9 ppm,95%
same,Postemergence herbicidal activity SORBI,[11]; 3.9 ppm,95%
same,Postemergence herbicidal activity SETFA,[12]; 3.9 ppm,100%
same,Preemergence herbicidal activity EPHHL,[13]; 17.5 g/Ha,98%
same,Preemergence herbicidal activity IPOHE,[14]; 17.5 g/Ha,98%
same,Preemergence herbicidal activity AMARE,[15]; 17.5 g/Ha,99%
same,Preemergence herbicidal activity AVEFA,[16]; 17.5 g/Ha,100%
same,Preemergence herbicidal activity ECHCG,[17]; 17.5 g/Ha,100%
same,Preemergence herbicidal activity ALOMY,[18]; 17.5 g/Ha,100%
same,Preemergence herbicidal activity XANST,[19]; 17.5 g/Ha,85%
same,Preemergence herbicidal activity DIGSA,[20]; 17.5 g/Ha,100%
same,Preemergence herbicidal activity ABUTH,[21]; 17.5 g/Ha,98%
same,Preemergence herbicidal activity SORBI,[22]; 17.5 g/Ha,100%
same,Preemergence herbicidal activity SETFA,[23]; 17.5 g/Ha,99%
COc1cc(OC)n2nc(NS(=O)(=O)c3cc(C)ccc3OC)nc2n1 [Compound 6],Postemergence herbicidal activity IPOHE,[1]; 31.3 ppm,70%
same,Postemergence herbicidal activity AMARE,[2]; 31.3 ppm,100%
same,Postemergence herbicidal activity AVEFA,[3]; 31.3 ppm,95%
same,Postemergence herbicidal activity POLCO,[4]; 31.3 ppm,98%
same,Postemergence herbicidal activity ALOMY,[5]; 31.3 ppm,90%
same,Postemergence herbicidal activity STEME,[6]; 31.3 ppm,98%
same,Postemergence herbicidal activity VIOTR,[7]; 31.3 ppm,90%
same,Postemergence herbicidal activity XANST,[8]; 31.3 ppm,95%
same,Postemergence herbicidal activity CHEAL,[9]; 31.3 ppm,95%
same,Postemergence herbicidal activity ABUTH,[10]; 31.3 ppm,95%
same,Postemergence herbicidal activity SORBI,[11]; 31.3 ppm,95%
same,Postemergence herbicidal activity SETFA,[12]; 31.3 ppm,95%
same,Preemergence herbicidal activity EPHHL,[13]; 35 g/Ha,80%
same,Preemergence herbicidal activity IPOHE,[14]; 35 g/Ha,50%
same,Preemergence herbicidal activity AMARE,[15]; 35 g/Ha,98%
same,Preemergence herbicidal activity AVEFA,[16]; 35 g/Ha,90%
same,Preemergence herbicidal activity ECHCG,[17]; 35 g/Ha,90%
same,Preemergence herbicidal activity ALOMY,[18]; 35 g/Ha,100%
same,Preemergence herbicidal activity XANST,[19]; 35 g/Ha,70%
same,Preemergence herbicidal activity DIGSA,[20]; 35 g/Ha,100%
same,Preemergence herbicidal activity ABUTH,[21]; 35 g/Ha,98%
same,Preemergence herbicidal activity SORBI,[22]; 35 g/Ha,95%
same,Preemergence herbicidal activity SETFA,[23]; 35 g/Ha,98%
